Results as given in ChEMBL document CHEMBL1153914, “Synthesis, binding affinity and SAR of new benzolactam derivatives as dopamine D3 receptor ligands” (Bioorg Med Chem Lett, 2009).

Tests used:
D(1A) dopamine receptor [1] = biological target: T1, D(1A) dopamine receptor (Homo sapiens, UniProt P21728); test: Displacement of [3H]SCH23390 from human dopamine D1 receptor at 10 uM
D(2) dopamine receptor [2] = biological target: T2, D(2) dopamine receptor (Homo sapiens, UniProt P14416); test: Displacement of [3H]spiperone from human dopamine D2 receptor at 10 uM
D(3) dopamine receptor = D(3) dopamine receptor (Homo sapiens, UniProt P35462); test: Displacement of [3H]spiperone from human dopamine D3 receptor
D(1A) dopamine receptor [3] = biological target: T1, D(1A) dopamine receptor; test: Displacement of [3H]SCH23390 from human dopamine D1 receptor
D(2) dopamine receptor [4] = biological target: T2, D(2) dopamine receptor; test: Displacement of [3H]spiperone from human dopamine D2 receptor
[5] = biological target: 5-hydroxytryptamine receptor 2A (Homo sapiens, UniProt P28223); test: Displacement of [3H]ketanserin from 5HT2A receptor
Homo sapiens = species: Homo sapiens; test: Selectivity ratio of Ki for human dopamine D2 receptor to Ki for human dopamine D3 receptor
[6] = Selectivity for dopamine D3 receptor over dopamine D2 receptor

T1 sequence (P21728 whole entry): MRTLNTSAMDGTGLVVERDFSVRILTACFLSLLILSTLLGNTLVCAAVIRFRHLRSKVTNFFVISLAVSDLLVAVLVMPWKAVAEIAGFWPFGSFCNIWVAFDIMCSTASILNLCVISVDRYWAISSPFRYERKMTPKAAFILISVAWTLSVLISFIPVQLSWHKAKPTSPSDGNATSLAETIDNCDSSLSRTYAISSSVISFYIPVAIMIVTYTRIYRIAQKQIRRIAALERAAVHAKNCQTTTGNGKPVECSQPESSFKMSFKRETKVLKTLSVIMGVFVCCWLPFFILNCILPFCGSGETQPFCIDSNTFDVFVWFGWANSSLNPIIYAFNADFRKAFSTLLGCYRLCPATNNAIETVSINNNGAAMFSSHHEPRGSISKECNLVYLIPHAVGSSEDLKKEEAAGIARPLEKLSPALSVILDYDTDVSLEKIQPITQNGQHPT
T2 sequence (P14416 whole entry): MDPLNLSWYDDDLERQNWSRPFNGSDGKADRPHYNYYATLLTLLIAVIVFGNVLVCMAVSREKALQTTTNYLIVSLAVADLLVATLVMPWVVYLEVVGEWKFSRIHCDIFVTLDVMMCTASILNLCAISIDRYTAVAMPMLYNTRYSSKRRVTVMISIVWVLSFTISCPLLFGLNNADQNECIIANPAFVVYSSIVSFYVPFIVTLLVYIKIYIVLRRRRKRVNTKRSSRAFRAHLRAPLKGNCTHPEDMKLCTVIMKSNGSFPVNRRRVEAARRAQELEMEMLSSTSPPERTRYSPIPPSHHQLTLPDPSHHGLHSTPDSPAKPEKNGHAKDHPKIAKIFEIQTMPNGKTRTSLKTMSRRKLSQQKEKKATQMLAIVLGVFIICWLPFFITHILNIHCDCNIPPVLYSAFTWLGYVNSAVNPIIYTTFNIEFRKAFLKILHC
Chain of D(3) dopamine receptor (P35462 whole entry): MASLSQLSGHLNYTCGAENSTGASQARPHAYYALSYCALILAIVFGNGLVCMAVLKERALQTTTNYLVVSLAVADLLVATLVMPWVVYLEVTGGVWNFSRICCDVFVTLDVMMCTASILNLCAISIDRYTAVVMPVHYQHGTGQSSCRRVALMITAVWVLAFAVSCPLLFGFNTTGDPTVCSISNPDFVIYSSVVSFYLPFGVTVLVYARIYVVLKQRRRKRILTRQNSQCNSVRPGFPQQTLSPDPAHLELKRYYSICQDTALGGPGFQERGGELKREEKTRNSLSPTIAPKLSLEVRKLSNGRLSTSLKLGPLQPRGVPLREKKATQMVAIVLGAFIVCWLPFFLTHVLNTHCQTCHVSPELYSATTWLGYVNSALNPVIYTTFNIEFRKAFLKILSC
Chain of 5-hydroxytryptamine receptor 2A (P28223 whole entry): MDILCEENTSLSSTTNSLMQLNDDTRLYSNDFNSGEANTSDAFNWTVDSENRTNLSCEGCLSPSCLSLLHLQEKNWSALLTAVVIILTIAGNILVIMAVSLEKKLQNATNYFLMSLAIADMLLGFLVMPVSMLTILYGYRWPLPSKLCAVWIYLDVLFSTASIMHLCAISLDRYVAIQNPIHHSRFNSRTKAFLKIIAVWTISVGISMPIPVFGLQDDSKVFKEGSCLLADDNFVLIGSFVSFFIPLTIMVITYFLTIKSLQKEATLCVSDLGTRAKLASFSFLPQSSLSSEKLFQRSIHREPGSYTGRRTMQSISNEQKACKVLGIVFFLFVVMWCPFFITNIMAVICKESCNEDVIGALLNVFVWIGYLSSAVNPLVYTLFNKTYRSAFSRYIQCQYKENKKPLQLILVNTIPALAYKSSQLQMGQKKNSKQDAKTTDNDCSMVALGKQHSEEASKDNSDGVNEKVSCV

Row | SMILES | Activity (D(1A) dopamine receptor [1]) [%] | Activity (D(2) dopamine receptor [2]) [%] | Ki (D(3) dopamine receptor; read-out: pKi (converted)) [nM] | Ki (D(1A) dopamine receptor [3]) [nM] | Ki (D(2) dopamine receptor [4]) [nM] | other results
1 | COc1ccc(N2CCN(CCCN3CCCCc4ccccc4C3=O)CC2)cc1 | 58.9 | 13.1 | 8910 | – | – | –
2 | O=C1c2ccccc2CCN1CCCN1CCN(c2ncccn2)CC1 | 40.8 | 0.36 | 24500 | – | – | –
3 | COc1ccccc1N1CCN(CCCN2CCc3ccccc3C2=O)CC1 | 59.5 | 50.4 | 1580 | – | – | –
4 | COc1ccccc1N1CCN(CCCCN2CCc3ccccc3C2=O)CC1 | 61.1 | – | – | – | 12.3 | –
5 | O=C1c2ccccc2CCCN1CCCN1CCN(c2cccc(Cl)c2Cl)CC1 | – | – | 389 | 2400 | 219 | –
6 | O=C1c2ccccc2CCN1CCCCN1CCN(c2ccccn2)CC1 | – | 57.5 | – | 2040 | – | –
7 | O=C1c2ccccc2CCN1CCCN1CCN(c2ccccn2)CC1 | – | 12.4 | 8320 | 1700 | – | –
8 | COc1ccc(N2CCN(CCCN3CCc4ccccc4C3=O)CC2)cc1 | 43.5 | 1.35 | 10000 | – | – | –
9 | COc1ccccc1N1CCN(CCCCCN2CCc3ccccc3C2=O)CC1 | – | – | 32.4 | 977 | 20.4 | –
10 | O=C1c2ccccc2CCN1CCCN1CCN(c2cccc(Cl)c2Cl)CC1 | – | 59.9 | 209 | 1450 | – | –
11 | O=C1c2ccccc2CCN1CCCCN1CCN(c2cccc(Cl)c2Cl)CC1 | – | – | 162 | 1780 | 11.5 | –
12 | COc1ccc(N2CCN(CCCCN3CCc4ccccc4C3=O)CC2)cc1 | 34.2 | 33.2 | 490 | – | – | –
13 | COc1ccccc1N1CCN(CCCN2CCCc3ccccc3C2=O)CC1 | – | – | 209 | 2510 | 794 | –
14 | O=C(NCCCCN1CCN(c2cccc(Cl)c2Cl)CC1)c1cc2ccccc2s1 | – | – | – | – | – | Selectivity ratio [6]: 7200
15 | O=C1c2ccccc2CCCN1CCCCN1CCN(c2ncccn2)CC1 | – | – | 631 | 8710 | 151 | –
16 | O=C1c2ccccc2CCN1CCCCN1CCN(c2ncccn2)CC1 | 31.6 | 60.5 | 1510 | – | – | –
17 | COc1cccc(N2CCN(CCCCN3CCc4ccccc4C3=O)CC2)c1 | – | – | 40.7 | 427 | 158 | –

Continued, in another order:

Row | Activity (D(1A) dopamine receptor [1]) [%] | Activity (D(2) dopamine receptor [2]) [%] | Ki (D(3) dopamine receptor; read-out: pKi (converted)) [nM] | Ki (D(1A) dopamine receptor [3]) [nM] | Ki (D(2) dopamine receptor [4]) [nM] | SMILES | other results
18 | 46 | 36.4 | 8320 | – | – | O=C1c2ccccc2CCCN1CCCN1CCN(c2ncccn2)CC1 | –
19 | – | 52.4 | 2400 | 1740 | – | O=C1c2ccccc2CCN1CCCN1CCN(c2cccc(C(F)(F)F)c2)CC1 | –
20 | – | – | 398 | 282 | 229 | O=C1c2ccccc2CCCN1CCCCN1CCN(c2ccccn2)CC1 | –
21 | 47.5 | 59 | – | – | – | COc1ccc(N2CCN(CCCCN3CCCc4ccccc4C3=O)CC2)cc1 | Ki (D(3) dopamine receptor; read-out: Ki): 40 nM
22 | 57 | 26.3 | 4170 | – | – | O=C1c2ccccc2CCCN1CCCN1CCN(c2ccccn2)CC1 | –
23 | – | – | 14.5 | 1740 | 36.3 | O=C1c2ccccc2CCCN1CCCCN1CCN(c2cccc(Cl)c2Cl)CC1 | Ki [5]: 10 nM; Ratio Ki (Homo sapiens): 2.5
24 | 42.8 | 1.1 | 1100 | – | > 100000 | COc1ccc(N2CCN(CCCN3CCCc4ccccc4C3=O)CC2)cc1 | –
25 | – | 55.5 | 1050 | 4900 | – | O=C1c2ccccc2CCCN1CCCN1CCN(c2cccc(C(F)(F)F)c2)CC1 | –
26 | – | – | 6.76 | 347 | 35.5 | O=C1c2ccccc2CCN1CCCCN1CCN(c2ccccc2Cl)CC1 | Ratio Ki (Homo sapiens): 5.2
27 | – | – | 1.58 | 2690 | 3.63 | COc1ccccc1N1CCN(CCCCN2CCCc3ccccc3C2=O)CC1 | Ratio Ki (Homo sapiens): 2.2
